Reference: article PMC7251097, “Aspartate/asparagine-β-hydroxylase: a high-throughput mass spectrometric assay for discovery of small molecule inhibitors” (Scientific Reports, 2020)
Read-outs that look alike come from different tables or passages of the source.

Biological target: T1, His6-AspH315–758 (human aspartate/asparagine-β-hydroxylase, AspH) (Homo sapiens, UniProt Q12797)
T1 construct: N-Terminally His6-tagged human AspH315–758 (His6-AspH315–758) was produced in E. coli BL21 (DE3) cells; made in house; host or cells: E. coli BL21 (DE3), pET-28a(+) vector
T1 sequence (Q12797 315-758): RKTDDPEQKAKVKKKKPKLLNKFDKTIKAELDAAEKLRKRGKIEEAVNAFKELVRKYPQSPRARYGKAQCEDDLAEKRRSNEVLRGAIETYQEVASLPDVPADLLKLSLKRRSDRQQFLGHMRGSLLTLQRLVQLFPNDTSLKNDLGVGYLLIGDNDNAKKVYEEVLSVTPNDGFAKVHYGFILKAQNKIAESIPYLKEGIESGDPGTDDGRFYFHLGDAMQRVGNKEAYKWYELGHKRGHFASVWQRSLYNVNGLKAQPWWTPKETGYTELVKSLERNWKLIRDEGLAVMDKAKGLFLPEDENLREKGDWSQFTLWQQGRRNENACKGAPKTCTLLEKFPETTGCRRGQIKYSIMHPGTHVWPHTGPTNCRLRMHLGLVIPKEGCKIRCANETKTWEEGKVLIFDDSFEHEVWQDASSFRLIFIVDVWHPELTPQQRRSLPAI
Experiment: SPE-MS AspH inhibition assay (LOPAC screen at fixed 20 μM and IC50 dose-response), hydroxylation of cyclic peptide hFX-CP101–119
Type: biochemical

[1] = LOPAC compound at 20uM, plate 3, conversion of substrate peptide
[2] = LOPAC compound at fixed 20 uM, plate 1, normalised to DMSO and 2,4-PDCA controls
[3] = LOPAC compound at fixed 20 uM, substrate conversion, plate 1
[4] = LOPAC Plate 4, compound at 20 uM, substrate conversion
[5] = LOPAC Plate 4, compound at 20 uM
[6] = LOPAC compound at 20uM, plate 2, conversion of substrate peptide
[7] = LOPAC compound at 20uM, plate 2, normalised to DMSO and 2,4-PDCA controls

NC1CCN(O)C1=O (racemic) [(±)-HA-966]
Plate 1 (% conversion): 36.52% | Plate 1 (% inhibition): -1.94%

COCCc1ccc(OCC(O)CNC(C)C)cc1.O=C(O)C(O)C(O)C(=O)O (racemic) [(±)-Metoprolol (+)-tartrate]
Plate 3 (% conversion) [1]: 16.57%

O=C(O)C1CCCNC1 (racemic) [(±)-Nipecotic acid]
Plate 1 (% conversion): 30.40% | Plate 1 (% inhibition): 16.29%

NC[C@H](O)c1ccc(O)c(O)c1.O=C(O)C(O)C(O)C(=O)O (racemic) [(±)-Norepinephrine (+)bitartrate]
Plate 1 (% inhibition) [2]: 92.57% | Plate 1 (% conversion) [3]: 4.78%

CN1CCN(C2Cc3ccccc3Sc3ccc(Cl)cc32)CC1.O=C(O)/C=C\C(=O)O (racemic) [(±)-Octoclothepin maleate]
Plate 3 (% conversion): 45.22%

CCCN(CCc1ccccc1)C1CCc2c(O)cccc2C1.Cl (racemic) [(±)-PPHT hydrochloride]
% conversion [4]: 27.49%

CC(C)NCC(O)COc1cccc2ccccc12.Cl (racemic) [(±)-Propranolol hydrochloride]
Plate 3 (% conversion): 40.68%

Br.C=CCN1CCc2cc(O)c(O)cc2C(c2ccccc2)C1 (racemic) [(±)-SKF 38393, N-allyl-, hydrobromide]
% conversion: 11.46% | % inhibition (20 µM): 73.28%

Cl.Oc1cc2c(cc1O)C(c1ccccc1)CNCC2 (racemic) [(±)-SKF-38393 hydrochloride]
Plate 2 (% conversion): 10.11% | Plate 2 (% inhibition) (20 µM): 77.21%

CC(C)NCC(O)c1ccc(NS(C)(=O)=O)cc1.Cl (racemic) [(±)-Sotalol hydrochloride]
% inhibition [5]: -12.79% | % conversion [4]: 40.83%

CCN1CCCC1CNC(=O)c1cc(S(N)(=O)=O)ccc1OC (racemic) [(±)-Sulpiride]
% inhibition [5]: -0.19% | % conversion [4]: 36.54%

CNCC(O)c1ccc(O)cc1 (racemic) [(±)-Synephrine]
% conversion: 25.88%

O=C1c2c(O)cc(O)cc2O[C@H](c2ccc(O)c(O)c2)[C@H]1O (racemic) [(±)-Taxifolin, reference compound]
Inhibition at 20 µM [%] (AspH activity, fixed compound concentration 20 μM, initial LOPAC screen, 0.5%v/v DMSO): 97.5% | % conversion [4]: 3.21%

O=C1CCC(N2C(=O)c3ccccc3C2=O)C(=O)N1 (racemic) [(±)-Thalidomide]
% inhibition [5]: -5.00% | % conversion [4]: 38.18%

COc1cc(C(O)C(=O)O)ccc1O (racemic) [(±)-Vanillylmandelic acid]
Plate 2 (% conversion) [6]: 32.67% | Plate 2 (% inhibition) [7]: 9.80%

COc1ccc(CCN(C)CCCC(C#N)(c2ccc(OC)c(OC)c2)C(C)C)cc1OC.Cl (racemic) [(±)-Verapamil hydrochloride]
% conversion: 42.64% | % inhibition (20 µM): -18.08%

Cl.OC1CCCCC1N1CCC(c2ccccc2)CC1 (racemic) [(±)-Vesamicol hydrochloride]
% conversion: 40.91% | % inhibition (20 µM): -13.00%

O=C(O)CCCCC1CCSS1 (racemic) [(±)-alpha-Lipoic Acid]
% inhibition [5]: 5.35% | % conversion [4]: 34.64%

O=C(O)[C@H]1CCCN[C@H]1C(=O)O (racemic) [(±)-cis-Piperidine-2,3-dicarboxylic acid]
% conversion: 39.41% | % inhibition (20 µM): -8.61%

C=CC(N)CCC(=O)O (racemic) [(±)-gamma-Vinyl GABA]
% conversion [4]: 37.96%

CCC1(c2ccc(N)cc2)CCC(=O)NC1=O (racemic) [(±)-p-Aminoglutethimide]
Plate 1 (% conversion): 34.85% | Plate 1 (% inhibition): 3.03%

NC(Cc1ccc(Cl)cc1)C(=O)O (racemic) [(±)-p-Chlorophenylalanine]
Plate 1 (% inhibition) [2]: -1.40% | Plate 1 (% conversion) [3]: 36.34%

COC(=O)C1=C(C)NC(C)=C(C(=O)O[C@@H]2CCCN(Cc3ccccc3)C2)[C@@H]1c1cccc([N+](=O)[O-])c1.Cl (racemic) [Benidipine hydrochloride]
Plate 2 (% conversion) [6]: 31.43% | Plate 2 (% inhibition) [7]: 13.51%

CCCCS(=N)(=O)CCC(N)C(=O)O (racemic) [DL-Buthionine-[S,R]-sulfoximine]
Plate 1 (% conversion): 34.26% | Plate 1 (% inhibition): 4.80%

N[C@@H]1CONC1=O (racemic) [DL-Cycloserine]
Plate 1 (% inhibition) [2]: -17.16% | Plate 1 (% conversion) [3]: 41.64%

O=C(O)CNC(=O)C(CS)Cc1ccccc1 (racemic) [DL-Thiorphan]
% conversion: 36.55% | inhibition at 20 µM: -0.22%

CC(N)(Cc1ccc(O)cc1)C(=O)O (racemic) [DL-alpha-Methyl-p-tyrosine]
Plate 1 (% conversion): 33.46% | Plate 1 (% inhibition): 7.19%

CCCCCCCCCCCCCCC[C@H](O)[C@H](N)CO (racemic) [DL-erythro-Dihydrosphingosine]
Plate 2 (% conversion) [6]: 62.82% | Plate 2 (% inhibition) [7]: -80.23%

CCN1CCC[C@H]1CNC(=O)c1c(O)c(Cl)cc(Cl)c1OC.O=C(O)C(O)C(O)C(=O)O (racemic) [S(+)-Raclopride L-tartrate]
% conversion [4]: 11.56%

CN(C)C[C@H](O)Cn1c2ccc(Br)cc2c2cc(Br)ccc21 (racemic) [Wiskostatin]
% conversion [4]: 31.93%

Br.CCCN1CCC2c3cc(O)ccc3CCC21 (racemic) [cis(+/-)-8-OH-PBZI hydrobromide]
Plate 3 (% conversion) [1]: 33.20%

CC(C)(C)c1cc(C(C)(C)C)c2c(c1)C(O)(C(F)(F)F)C(=O)O2 (racemic) [rac BHFF]
% inhibition [5]: 72.02% | % conversion [4]: 11.89%

COc1ccc2c(c1OC)C(=O)OC2C1c2cc3c(cc2CCN1C)OCO3 (single isomer, unassigned; (+)) [(+)-Hydrastine]
Plate 2 (% conversion): 38.28% | inhibition at 20 µM (read-out: Plate 2 (% inhibition)): -6.94%

CC(N)Cc1cccc(C(F)(F)F)c1.Cl (single isomer, unassigned; (+)) [(+)-Norfenfluramine hydrochloride]
% conversion: 26.61%

CC(C)NCC(O)c1ccc(O)c(O)c1.Cl (single isomer, unassigned; (-)) [(-)-Isoproterenol hydrochloride]
Plate 3 (% conversion) [1]: 6.03%

Br.CN1[C@@H]2CC(OC(=O)[C@H](CO)c3ccccc3)C[C@H]1[C@@H]1O[C@@H]12 (single isomer, unassigned; (-)) [(-)-Scopolamine hydrobromide]
% inhibition (20 µM): -9.71%

C[N+]1(C)[C@@H]2CC(OC(=O)[C@H](CO)c3ccccc3)C[C@H]1[C@@H]1O[C@@H]12.O=[N+]([O-])[O-] (single isomer, unassigned; (-)) [(-)-Scopolamine methyl nitrate]
% conversion: 25.39%

CC(N)C(O)c1ccc(O)c(O)c1 (single isomer, unassigned; (-)) [(-)-alpha-Methylnorepinephrine]
Plate 2 (% conversion): 7.36% | Plate 2 (% inhibition) (20 µM): 85.40%

Nc1nc(Cl)nc2c1ncn2[C@@H]1O[C@H](COP(=O)(O)OP(=O)(O)OP(=O)(O)O)C(O)C1O (stereo in doubt)
Plate 2 (% conversion) [6]: 11.93% | Plate 2 (% inhibition) [7]: 71.75%

Nc1ncnc2c1nc(Sc1ccc(Cl)cc1)n2C1OC2COP(=O)(O)OC2C1O (stereo in doubt) [8-(4-Chlorophenylthio)-cAMP sodium]
Plate 1 (% inhibition) [2]: -2.91% | Plate 1 (% conversion) [3]: 36.85%

CCCCC1(C2CCCC2)Cc2cc(OCC(=O)O)c(Cl)c(Cl)c2C1=O (stereo in doubt) [R(+)-Butylindazone]
Plate 2 (% conversion) [6]: 33.18% | Plate 2 (% inhibition) [7]: 8.29%

Cn1c(=O)c2[nH]c(-c3ccccc3)nc2n(C)c1=O [1,3-Dimethyl-8-phenylxanthine]
Plate 3 (% conversion) [1]: 35.64%
